Source: US20050272766A1, “1-Glyoxylamide indolizines for treating lung and ovarian cancer” (Synta Pharmaceuticals Corp., priority 2004, published 2005)
Marks after values point to notes of the source that are not given here.

Experiments:
[1] = system: Ma44 human lung squamous cell carcinoma; conditions: in vivo
Experimental: (§1) Compound (1) was suspended in 1% methylcellulose solution (Wako, Osaka, 400 c.p., and distilled water) and was stored at 4° C. Paclitaxel (Sigma St. Louis, Mo.) was dissolved in dimethylsulfoxide (DMSO, Nakarai-Tesk, Tokyo) and stored at 4° C., and was prepared in a solution of 10% DMSO, 18% Cremophore RH-40 (Nikko Chemicals) and 72% distilled water before use.
(§2) Female mice, 8 weeks old (strain BALB/c-nu/nu, CLEA Japan Inc., Tokyo) were obtained and adapted for 5 days at experimental conditions and used at 10 weeks old. Experimental conditions included temperature of 21-27° C.; relative humidity of 40-70%; ventilation>10 times/hour; fluorescent light for 12-hour light (8:00-20:00)/12-hour dark; ad libitium access to food (irradiated CA-1, CLEA Japan Inc., Tokyo) and water (Osaka city tap water).
(§3) Statistical analyses versus control group and between selected groups were performed using a spreadsheet program to run Welch's test and Dunnett's multiple comparison test.
(§4) Tumor size and body weight were scored at least twice a week throughout the experiment. Tumor size was captured utilizing CD-10C compatible electric calipers (Mitsutoyo Corp., Kawasaki) and animal weight was automatically captured from the balance (A/D, Tokyo). The tumor volume was calculated by the following formula: [Tumor volume=(Length×Width×Width)/2]. The relative tumor volume (RV) was calculated as RV=Vn/Vo, where Vn: tumor volume on day n, and Vo: initial tumor volume. Judgment was performed one day (Examples 6 and 9) or three days (Examples 7 and 8) after the last dosing.
(§5) Animal experiments were performed using Tumor Measuring & Tracking System (VISIONS Co. Ltd., Tokyo). An experiment consisted of 8 mice per group (Examples 6 and 9) or 6 mice per group (Examples 7 and 8). Tumor samples were implanted subcutaneously into the back of mice (day 0). Tumor-implanted animals were randomized to groups based upon tumor volume and body weight when tumor volume reached approximately 100-200 mm^3. The control group was given vehicle (1% methylcellulose solution). The doses were calculated on the basis of up-to-date body weights of the mice (0.1 mL/10 g body weight). The mice were non-fasted during an entire course of the experiment.
(§6) Ma44 human lung squamous cell carcinoma was maintained by in vitro passage with using Eagle's Minimum Essential Medium (Nissui Pharmaceutical Co., Tokyo) supplemented with 10% fetal calf serum (Life Technologies Inc, MD). Ma44 cells (5×10^5/0.1 mL) were implanted and the animals were randomized at 11 days. Compound (1) was orally administered daily for 14 days. Paclitaxel solution (DMSO/Cremophore/distilled water) was prepared as above and administered intravenously 6 times (3 times per week×2).

[2] = system: BG-1-TR1 human ovarian cancer; assay: Antitumor efficacy against BG-1-TR1 human ovarian cancer implanted subcutaneously in nude mice
Experimental: (§7) Compound (1) was suspended in 1% methylcellulose solution (Wako, Osaka, 400 c.p., and distilled water) and was stored at 4° C.
as §2, §3, §4, §5
The tumor sample implanted included BG-1-TR1 cells (3×10^6/0.1 ml of 5 mg/ml matrigel solution, BD Biosciences, Bedford, Mass.). Implanted animals were randomized at 20 days. Compound (1) was orally administered daily for 14 days from day 20 to 33.

[3] = system: RERF-LC-AI/TXL carcinoma; assay: Antitumor efficacy against RERF-LC-AI/TXL human lung cancer fragment implanted subcutaneously in nude mice; conditions: for % inhibition: day 24
Experimental: as §1, §2, §3, §4, §5
(§8) The tumor sample implanted was a fragment of RERF-LC-AI/TXL carcinoma. Implanted animals were randomized at 11 days. Compound (1) was orally administered daily for 14 days. Paclitaxel solution (DMSO/Cremophore/distilled water) was prepared as above. and administered intravenously 6 times (3 times per week×2, day 11, 13, 15, 18, 20 and 22).

[4] = system: Ma44 human lung squamous cell carcinoma; assay: Antitumor efficacy against Ma44 human lung squamous cell carcinoma implanted subcutaneously in nude mice; conditions: for % inhibition: day 27; for RV on day 27 (Mean +/- SD), relative tumor volume: nude mice; for growth inhibition (% inhibition): p<0.01
Experimental: as §1, §2, §3, §4, §5, §6

[5] = Body weight of treated mice (summary statement, Examples 1-4); type: in vivo
Experimental: as §4

[6] = system: RERF-LC-AI/TXL carcinoma; conditions: in vivo
Experimental: as §1, §2, §3, §4, §5, §8

[7] = system: RERF-LC-AI carcinoma; assay: Antitumor efficacy against RERF-LC-AI human lung cancer fragment implanted subcutaneously in nude mice; conditions: for % inhibition: day 26
Experimental: as §7, §2, §3
Tumor size and body weight were scored at least twice a week throughout the experiment. Tumor size was captured utilizing CD-10C compatible electric calipers (Mitsutoyo Corp., Kawasaki) and animal weight was automatically captured from the balance (A/D, Tokyo). The tumor volume was calculated by the following formula: [Tumor volume=(Length×Width×Width)/2]. The relative tumor volume (RV) was calculated as RV=Vn/Vo, where Vn: tumor volume on day n, and Vo: initial tumor volume.
Animal experiments were performed using Tumor Measuring & Tracking System (VISIONS Co. Ltd., Tokyo). […] Tumor samples were implanted subcutaneously into the back of mice (day 0). Tumor-implanted animals were randomized to groups based upon tumor volume and body weight when tumor volume reached approximately 100-200 mm^3. The control group was given vehicle (1% methylcellulose solution). The doses were calculated on the basis of up-to-date body weights of the mice (0.1 mL/10 g body weight). The mice were non-fasted during an entire course of the experiment.
The tumor sample implanted was a fragment of RERF-LC-AI carcinoma. Implanted animals were randomized at 10 days. Compound (1) was orally administered daily for 14 days.

[8] = 25 mg/kg x 14, oral daily, day 11-24
[9] = 50 mg/kg x 14, oral daily, 5 surviving mice
[10] = 20 mg/kg x 6, intravenous, day 10, 12, 14, 17, 19 and 21
[11] = 20 mg/kg, maximum tolerated dose for nude mice in this schedule

In the case of `Cc1cc(NC(=O)C(=O)c2cc(Cc3ccc(C#N)cc3)n3ccccc23)sn1` [Compound (1), 2-(3-(4-cyanobenzyl)indolizin-1-yl)-N-(3-methylisothiazol-5-yl)-2-oxoacetamide], the mice found dead [1] is reported as “one of eight mice”, the “% inhibition” value ([2]; 12.5 mg/kg x 14, oral daily) is reported as 27.4% and the “MBWL, maximum body weight loss (% of initial)” value ([2]; 12.5 mg/kg x 14, oral daily) is reported as 0%. For the same compound, the “RV (Mean +/- SD), relative tumor volume on day 34” value ([2]; 12.5 mg/kg x 14, oral daily, from day 20 to 33) was 1.6 ± 0.7, the body weight losses ([2]; 25 mg/kg and 50 mg/kg daily oral dosing groups) was “mild” and the “% inhibition” value ([2]; 25 mg/kg x 14, oral daily) was 27.5%. For the same compound, the “RV (Mean +/- SD), relative tumor volume on day 34” value ([2]; 25 mg/kg x 14, oral daily, from day 20 to 33) was 1.6 ± 0.5, the “MBWL, maximum body weight loss (% of initial)” value ([2]; 25 mg/kg x 14, oral daily, maximum on d24) was 1.9% (d24) and the “RV (Mean +/- SD), relative tumor volume on day 34” value ([2]; 50 mg/kg x 14, oral daily, from day 20 to 33) was 0.9 ± 0.3. The “MBWL, maximum body weight loss (% of initial)” value ([2]; 50 mg/kg x 14, oral daily, maximum on d34) was 8.7% (d34), the “percent inhibition of cancer cells” value ([2]; oral administration, BG1-TR1, summary) was “up to 61%” and the “MBWL, maximum body weight loss (% of initial)” value ([3]; 25 mg/kg x 14, oral daily) was 1%. For the same compound, the “RV on day 24 (Mean +/- SD), relative tumor volume” value ([3]; 25 mg/kg x 14, oral daily, from day 10 to 23, nude mice) was 26.49 ± 13.41, the “% inhibition” value ([3]; 25 mg/kg x 14, oral daily) was 36.2% and the “growth inhibition” value ([3]; 50 mg/kg daily oral dosing, evaluation day 27) was 68.8%. The “MBWL, maximum body weight loss (% of initial)” value ([3]; 50 mg/kg x 14, oral daily) was 3%, the Toxic death ([3]; 50 mg/kg x 14, oral daily, 1 mouse, on day 16) was “Toxic” and the “RV on day 24 (Mean +/- SD), relative tumor volume” value ([3]; 50 mg/kg x 14, oral daily, 7 surviving mice) was 15.01 ± 6.45. The “% inhibition” value ([3]; 50 mg/kg x 14, oral daily) was 63.9%, the “percent inhibition of cancer cells” value ([3]; oral administration, RERF/TXL, summary) was no more than 67% and the “MBWL, maximum body weight loss (% of initial)” value ([4]; 25 mg/kg x 14, oral daily) was 3%. For the same compound, the “% inhibition” value [4, 8] was 35.2%, the “RV on day 27 (Mean +/- SD), relative tumor volume” value [4, 8] was 10.0 ± 1.4 and the body weight losses ([4]; 50 mg/kg daily oral dosing) was “mild”. For the same compound, the “growth inhibition (% inhibition)” value ([4]; 50 mg/kg daily oral dosing) was 63.9%, the “MBWL, maximum body weight loss (% of initial)” value ([4]; 50 mg/kg x 14, oral daily) was 5% and the “% inhibition” value ([4]; 50 mg/kg x 14, oral daily) was 68.8%. The “RV on day 27 (Mean +/- SD), relative tumor volume” value ([4]; 50 mg/kg x 14, oral daily) was 4.8 ± 1.7, the “growth inhibition (% inhibition)” value ([4]; lower dose, daily oral) was 36.2% and the “percent inhibition of cancer cells” value ([4]; oral administration, Ma44, summary) was no more than 64%. The “change in body weight” value [5] was “Minimal change in body weight”, the mice found dead [6] was “All mice” and the “MBWL, maximum body weight loss (% of initial)” value ([7]; 25 mg/kg x 14, oral daily) was 4%. For the same compound, the “RV on day 26 (Mean +/- SD), relative tumor volume” value ([7]; 25 mg/kg x 14, oral daily, day 10-23, nude mice) was 14.1 ± 73, the “% inhibition” value ([7]; 25 mg/kg x 14, oral daily) was 64.9% and the Toxic death ([7]; 50 mg/kg x 14, oral daily, 1 of 6 mice, on day 21) was “one of six mice”. For the same compound, the “MBWL, maximum body weight loss (% of initial)” value [7, 9] was 14%, the “RV on day 26 (Mean +/- SD), relative tumor volume” value [7, 9] was 8.2 ± 1.9 and the “% inhibition” value ([7]; 50 mg/kg x 14, oral daily) was 79.7%. The Toxic death ([7]; 75 mg/kg x 14, oral daily, 6 mice, on day 17-20) was “All mice” and the “percent inhibition of cancer cells” value ([7]; oral administration, RERF-LC-AI, summary) was no more than 80%.

For `CC(=O)O[C@H]1C(=O)[C@@]2(C)[C@H]([C@H](OC(=O)c3ccccc3)[C@]3(O)C[C@H](OC(=O)[C@H](O)[C@@H](NC(=O)c4ccccc4)c4ccccc4)C(C)=C1C3(C)C)[C@]1(OC(C)=O)CO[C@@H]1C[C@@H]2O` [Paclitaxel, reference compound], the “% inhibition” value ([2]; 20 mg/kg x 6, intravenous) was 8.3%, the “RV (Mean +/- SD), relative tumor volume on day 34” value ([2]; 20 mg/kg x 6, intravenous, day 20, 22, 24, 27, 29, 31, nude mice) was 2.0 ± 0.7 and the “MBWL, maximum body weight loss (% of initial)” value ([2]; 20 mg/kg x 6, intravenous, maximum on d27) was 4.5% (d27). For the same compound, the antitumor activity ([2]; 20 mg/kg, maximum tolerated dose for nude mice in this schedule, BG-1 cells) was “neither significant nor effective”, the “MBWL, maximum body weight loss (% of initial)” value ([3]; 10 mg/kg x 6, intravenous) was 0% and the “RV on day 24 (Mean +/- SD), relative tumor volume” value ([3]; 10 mg/kg x 6, intravenous, day 10, 12, 14, 17, 19 and 21) was 31.23 ± 6.69. For the same compound, the “% inhibition” value ([3]; 10 mg/kg x 6, intravenous) was 24.8%, the “MBWL, maximum body weight loss (% of initial)” value ([3]; 20 mg/kg x 6, intravenous) was 0% and the “RV on day 24 (Mean +/- SD), relative tumor volume” value [3, 10] was 32.87 ± 10.03. The “% inhibition” value ([3]; 20 mg/kg x 6, intravenous) was 20.9%, the “growth inhibition” value [3, 11] was 81.8% and the “MBWL, maximum body weight loss (% of initial)” value ([4]; 20 mg/kg x 6, intravenous) was 3%. For the same compound, the “RV on day 27 (Mean +/- SD), relative tumor volume” value ([4]; 20 mg/kg x 6, intravenous, day 11, 13, 15, 18, 20 and 22) was 2.8 ± 0.4^**e), the “% inhibition” value ([4]; 20 mg/kg x 6, intravenous) was 81.8% and the antitumor activity [4, 11] was “neither significant nor effective”. The “MBWL, maximum body weight loss (% of initial)” value ([7]; 20 mg/kg x 6, intravenous) was 7%, the “RV on day 26 (Mean +/- SD), relative tumor volume” value [7, 10] was 3.1 ± 0.8**^e) and the “% inhibition” value ([7]; 20 mg/kg x 6, intravenous) was 92.2%.
